Reference: PMC10247784, “Physiological activation of human and mouse bitter taste receptors by bile acids” (Communications Biology, 2023)

Target: T1, mouse Tas2r117 (Mus musculus, UniProt Q7M715)
T1 construct: expressed in transfected cells; host or cells: HEK293T-Gα16gust44
T1 sequence (Q7M715 1-330): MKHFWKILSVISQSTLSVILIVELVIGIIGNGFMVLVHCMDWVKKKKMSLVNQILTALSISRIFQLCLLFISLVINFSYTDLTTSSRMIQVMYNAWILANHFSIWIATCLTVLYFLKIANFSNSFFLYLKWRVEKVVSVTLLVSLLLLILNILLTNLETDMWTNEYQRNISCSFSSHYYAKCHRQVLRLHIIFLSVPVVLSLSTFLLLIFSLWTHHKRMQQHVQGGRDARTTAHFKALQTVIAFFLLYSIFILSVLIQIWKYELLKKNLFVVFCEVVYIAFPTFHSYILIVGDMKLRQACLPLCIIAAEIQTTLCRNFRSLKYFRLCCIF
Assay: Calcium imaging assay (FLIPR), HEK293T-Gα16gust44 cells transfected with mouse Tas2r117
Type: cell-based
Details: for Δ F/F: Tas2r117; for RLU: sheet Tas2r117, time trace
Experimental: This set of bile acids was chosen because of their commercial availability in high purities, their diversity within the class of bile acids and their previous detection and quantitation in human blood. Stock solutions were prepared in DMSO.
As basal growth medium for the HEK293T-Gα16gust44 cell line[17],[59] served Dulbecco’s modified eagle medium (DMEM) (Thermo Fisher Scientific, Darmstadt, Germany) supplemented with 10 % fetal bovine serum (Sigma-Aldrich, Steinheim, Germany), 2 mM L-glutamine (Sigma-Aldrich, Steinheim, Germany), 100 units/ml penicillin (Sigma Aldrich, Steinheim, Germany) and 100 µg/ml streptomycin (Sigma Aldrich, Steinheim, Germany). Growth conditions were 37 °C, 5 % CO2 and saturated air-humidity[60].
HEK293T-Gα16gust44 cells were seeded on poly-D-lysine (10 µg/ml) coated 96-well plates to reach a confluence of 40-60 % the next day. For transient transfection 150 ng of plasmid DNA containing the receptor of interest and 0.3 µl lipofectamine 2000 (Thermo Fisher Scientific, Darmstadt, Germany) per well were used and transfection took place according to the manual of lipofectamine 2000. […] The empty vector DNA (mock) was transfected as negative control[14],[41].
Cells were loaded using the calcium-sensitive fluorescent dye Fluo-4-AM (Abcam, Cambridge, Great Britain) in the presence of 2.5 mM probenecid (Sigma-Aldrich, Steinheim, Germany) the day after transfection[13],[41]. 1 h after loading, cells were washed with C1 buffer using a BioTek Cell Washer, incubated in the dark for half an hour and washed again. For automated agonist application and measurement of fluorescence changes, a FLIPR^TETRA device (Molecular Devices, San José, United States) was used. Viability of cells was tested by application of 100 nM Somatostatin 14 (Bachem, Bubendorf, Switzerland)[42].
Measured data were negative control corrected by subtracting the signal of the mock-transfected cells and exported to Microsoft Excel using the FLIPR software ScreenWorks 4.2. In Microsoft Excel software, standardization of maximum fluorescence intensities to the basal fluorescence and normalization to the buffer-only control was done to calculate the relative fluorescence changes (ΔF/F).
Initial screening experiments performed in duplicate wells were confirmed by at least one replication and representative traces were selected for display. All dose-response relationships were determined by three independent experiments (biological replicates) performed in duplicates (technical replicates). Threshold concentrations, defined as lowest substance concentrations leading to statistically significant elevated fluorescence changes in receptor-transfected cells compared with empty vector-transfected cells, were determined using SigmaPlot with Student’s t-test to evaluate statistical significance (p < 0.01).

Δ F/F (conc. 0,01 mM): 0.04745 | Δ F/F (conc. 0,1 mM): 0.1208 | Δ F/F (conc. 0,03 mM): 0.08527 | Δ F/F (conc. 0,3 mM): 0.126 | Δ F/F (conc. 0,0003 mM): 0.0009082 | Δ F/F (conc. 0,001 mM): -0.007003 | Δ F/F (conc. 0,003 mM): 0.01508 | RLU (Time (s) 0): 0 RLU | RLU (Time (s) 2): -1.6624 RLU | RLU (Time (s) 4): 36.4597 RLU | RLU (Time (s) 6): 6 RLU | RLU (Time (s) 8): 8.49 RLU | RLU (Time (s) 12): -1.574 RLU | RLU (Time (s) 14): -17.8222 RLU | RLU (Time (s) 16): -9.405 RLU | RLU (Time (s) 18): -10.6465 RLU | RLU (Time (s) 18.797): -31.8582 RLU | RLU (Time (s) 20.797): -50.2175 RLU | RLU (Time (s) 22.797): -35.3697 RLU | RLU (Time (s) 24.797): -21.9519 RLU | RLU (Time (s) 26.797): 21.3834 RLU | RLU (Time (s) 28.797): 104.133 RLU | RLU (Time (s) 30.797): 136.733 RLU | RLU (Time (s) 32.797): 195.234 RLU | RLU (Time (s) 34.797): 290.459 RLU | RLU (Time (s) 36.797): 340.932 RLU | RLU (Time (s) 38.797): 397.791 RLU | RLU (Time (s) 40.797): 414.428 RLU | RLU (Time (s) 42.797): 437.759 RLU | RLU (Time (s) 44.797): 439.85 RLU | RLU (Time (s) 46.797): 450.862 RLU | RLU (Time (s) 48.797): 498.067 RLU | RLU (Time (s) 50.797): 490.971 RLU | RLU (Time (s) 52.797): 511.962 RLU | RLU (Time (s) 54.797): 520.574 RLU | RLU (Time (s) 56.797): 524.281 RLU | RLU (Time (s) 58.797): 554.582 RLU | RLU (Time (s) 60.797): 523.267 RLU | RLU (Time (s) 62.797): 554.128 RLU | RLU (Time (s) 64.797): 560.589 RLU | RLU (Time (s) 66.797): 586.355 RLU | RLU (Time (s) 68.797): 595.813 RLU | RLU (Time (s) 70.797): 569.01 RLU | RLU (Time (s) 72.797): 587.543 RLU | RLU (Time (s) 74.797): 600.561 RLU | RLU (Time (s) 76.797): 625.108 RLU | RLU (Time (s) 78.797): 601.569 RLU | RLU (Time (s) 80.797): 601.653 RLU | RLU (Time (s) 82.797): 613.098 RLU | RLU (Time (s) 84.797): 590.202 RLU | RLU (Time (s) 86.797): 586.509 RLU | RLU (Time (s) 88.797): 591.824 RLU | RLU (Time (s) 90.797): 608.043 RLU | RLU (Time (s) 92.797): 567.854 RLU | RLU (Time (s) 94.797): 592.934 RLU | RLU (Time (s) 96.797): 555.343 RLU | RLU (Time (s) 98.797): 591.525 RLU | RLU (Time (s) 100.797): 565.961 RLU | RLU (Time (s) 102.797): 558.057 RLU | RLU (Time (s) 104.797): 568.873 RLU | RLU (Time (s) 106.797): 600.41 RLU | RLU (Time (s) 108.797): 557.119 RLU | RLU (Time (s) 110.797): 566.614 RLU | RLU (Time (s) 112.797): 544.906 RLU | RLU (Time (s) 114.797): 533.624 RLU | RLU (Time (s) 116.797): 578.387 RLU | RLU (Time (s) 118.797): 540.575 RLU | RLU (Time (s) 120.797): 553.404 RLU | RLU (Time (s) 122.797): 531.136 RLU | RLU (Time (s) 124.797): 541 RLU | RLU (Time (s) 126.797): 530.303 RLU | RLU (Time (s) 128.797): 505.327 RLU | RLU (Time (s) 130.797): 508.223 RLU | RLU (Time (s) 132.797): 529.676 RLU | RLU (Time (s) 134.797): 490.998 RLU | RLU (Time (s) 136.797): 480.544 RLU | RLU (Time (s) 137.562): 494.151 RLU | RLU (Time (s) 143.578): 475.248 RLU | RLU (Time (s) 149.578): 448.977 RLU | RLU (Time (s) 155.578): 429.963 RLU | RLU (Time (s) 161.578): 410.536 RLU | RLU (Time (s) 167.578): 411.276 RLU | RLU (Time (s) 173.578): 378.737 RLU | RLU (Time (s) 179.578): 356.849 RLU | RLU (Time (s) 191.578): 338.845 RLU | RLU (Time (s) 197.578): 316.205 RLU | RLU (Time (s) 209.578): 296.441 RLU | RLU (Time (s) 221.578): 181.834 RLU | RLU (Time (s) 233.578): 175.03 RLU | RLU (Time (s) 239.578): 155.758 RLU | RLU (Time (s) 245.578): 143.461 RLU | RLU (Time (s) 293.578): 87.8538 RLU | RLU (Time (s) 299.578): 79.8727 RLU | RLU (Time (s) 305.578): 78.6198 RLU | RLU (Time (s) 311.578): 69.0671 RLU | RLU (Time (s) 317.578): 91.9062 RLU | RLU (Time (s) 323.578): 87.6118 RLU | RLU (Time (s) 329.578): 65.9416 RLU | RLU (Time (s) 335.578): 41.2589 RLU | RLU (Time (s) 341.578): 94.1086 RLU | RLU (Time (s) 347.578): 67.2353 RLU | RLU (Time (s) 353.578): 54.4225 RLU | RLU (Time (s) 359.578): 85.0918 RLU | EC50 (calculated where receptor saturation was reached, read-out: EC50 Tas2r117): 16 ± 2.5 µM | Activation threshold concentration Tas2r117 (p < 0.01 vs empty vector): 3 µM
Compound: C[C@H](CCC(=O)NCC(=O)O)[C@H]1CC[C@H]2[C@@H]3[C@H](O)C[C@@H]4C[C@H](O)CC[C@]4(C)[C@H]3C[C@H](O)[C@]12C [Glycocholic Acid, glycocholic acid]
